Patent publication US20180179198A1, “TRICYCLIC MODULATORS OF TNF SIGNALING” (AbbVie Inc., priority 2015, published 2018)
Like-named read-outs stand apart in the source and are kept apart here.

Target: TNFα trimer (Homo sapiens, UniProt P01375)
Assay: TNFα FP Competitive Binding Assay
Outline: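 Fluorescence polarization displacement: 20 nM TNFα trimer (60 nM protein) with 1 nM fluorescein-labelled bis-isoquinoline probe in HEPES/NaCl/EDTA/Triton X-100 buffer. 12-point 1:3 compound series, top final 338 μM (3.4% DMSO) or 100 μM (2.0% DMSO); 18-24 h at 37 °C, then 1 h rt before background-subtracted mP read; variable-slope curve fit.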

[1] = fluorescence polarization competition, 20 nM TNFα trimer, 1 nM OregonGreen488 probe, read-out: TNF IC50 (TNFα FP binding assay IC50)
[2] = TNFα FP competitive binding assay, class symbols A/B/C, read-out: TNF IC50

Sequence of TNFα trimer (P01375 77-233 limits assumed): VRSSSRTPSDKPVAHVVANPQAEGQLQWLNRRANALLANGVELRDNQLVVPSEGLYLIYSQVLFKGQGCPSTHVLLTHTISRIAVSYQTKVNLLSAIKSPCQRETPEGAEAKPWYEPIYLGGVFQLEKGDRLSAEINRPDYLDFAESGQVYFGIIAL

| Compound | IC50 [1] | IC50 [2] |
| --- | --- | --- |
| CC(O)C1CCN(c2ncc(-c3ccc4nc5n(c4c3)[C@@H](c3ccccc3)COC5)cn2)CC1 (some centres unmarked) [G.7] | 1000 to 10000 nM | – |
| c1ccc([C@H]2COCc3nc4ccc(-c5cnc(N6CCC7(CC6)COC7)nc5)cc4n32)cc1 [G.8] | < 1000 nM | – |
| O=C1CN(c2ncc(-c3ccc4nc5n(c4c3)[C@@H](c3ccccc3)COC5)cn2)CCCN1 [G.9] | 1000 to 10000 nM | – |
| O=C(O)CCC1CCN(c2ncc(-c3ccc4nc5n(c4c3)[C@@H](c3ccccc3)COC5)cn2)CC1 [G.10] | 1000 to 10000 nM | – |
| OC1CCCN(c2ncc(-c3ccc4nc5n(c4c3)[C@@H](c3ccccc3)COC5)cn2)CC1 (some centres unmarked) [G.11] | < 1000 nM | – |
| NS(=O)(=O)N1CCN(c2ncc(-c3ccc4nc5n(c4c3)[C@@H](c3ccccc3)COC5)cn2)CC1 [G.12] | < 1000 nM | – |
| CN1CCC(N2CCN(c3ncc(-c4ccc5nc6n(c5c4)[C@@H](c4ccccc4)COC6)cn3)CC2)CC1 [G.13] | 1000 to 10000 nM | – |
| OCC1(F)CCN(c2ncc(-c3ccc4nc5n(c4c3)[C@@H](c3ccccc3)COC5)cn2)CC1 [G.14] | < 1000 nM | – |
| FC(F)(F)C1CN(c2ncc(-c3ccc4nc5n(c4c3)[C@@H](c3ccccc3)COC5)cn2)CCO1 (some centres unmarked) [G.15] | 1000 to 10000 nM | – |
| c1ccc([C@H]2COCc3nc4ccc(-c5cnc(N6CCC7(COC7)C6)nc5)cc4n32)cc1 [G.16] | 1000 to 10000 nM | – |
| c1ccc([C@H]2COCc3nc4ccc(-c5cnc(N6CC(N7CCOCC7)C6)nc5)cc4n32)cc1 [G.17] | 10000 to 100000 nM | – |
| CS(=O)(=O)[C@@H]1CCN(c2ncc(-c3ccc4nc5n(c4c3)[C@@H](c3ccccc3)COC5)cn2)C1 [G.18] | 1000 to 10000 nM | – |
| CS(=O)(=O)NC1CCN(c2ncc(-c3ccc4nc5n(c4c3)[C@@H](c3ccccc3)COC5)cn2)CC1 [G.19] | 1000 to 10000 nM | – |
| OCCC1(O)CCN(c2ncc(-c3ccc4nc5n(c4c3)[C@@H](c3ccccc3)COC5)cn2)CC1 [G.20] | < 1000 nM | – |
| CN1CCC(C2CCN(c3ncc(-c4ccc5nc6n(c5c4)[C@@H](c4ccccc4)COC6)cn3)CC2)CC1 [G.21] | 1000 to 10000 nM | – |
| CC1(O)CCN(c2ncc(-c3ccc4nc5n(c4c3)[C@@H](c3ccccc3)COC5)cn2)CC1 [G.22] | < 1000 nM | – |
| CC1CN(c2ncc(-c3ccc4nc5n(c4c3)[C@@H](c3ccccc3)COC5)cn2)CC(C)O1 (some centres unmarked) [G.23] | 1000 to 10000 nM | – |
| CS(=O)(=O)N1CCN(c2ncc(-c3ccc4nc5n(c4c3)[C@@H](c3ccccc3)COC5)cn2)CC1 [G.24] | < 1000 nM | – |
| O[C@H]1CN(c2ncc(-c3ccc4nc5n(c4c3)[C@@H](c3ccccc3)COC5)cn2)C[C@@H]1O [G.25] | 10000 to 100000 nM | – |
| O[C@@H]1CN(c2ncc(-c3ccc4nc5n(c4c3)[C@@H](c3ccccc3)COC5)cn2)C[C@H]1O [G.26] | 10000 to 100000 nM | – |
| O=C1OCC2CN(c3ncc(-c4ccc5nc6n(c5c4)[C@@H](c4ccccc4)COC6)cn3)CCN12 (some centres unmarked) [G.27] | 1000 to 10000 nM | – |
| c1ccc([C@H]2COCc3nc4ccc(-c5cnc(N6CCn7cnnc7C6)nc5)cc4n32)cc1 [G.28] | < 1000 nM | – |
| CS(=O)(=O)C1CCN(c2ncc(-c3ccc4nc5n(c4c3)[C@@H](c3ccccc3)COC5)cn2)C1 (some centres unmarked) [G.29] | 1000 to 10000 nM | – |
| O=C1CN(c2ncc(-c3ccc4nc5n(c4c3)[C@@H](c3ccccc3)COC5)cn2)CCN1 [G.30] | < 1000 nM | – |
| OCCC1(O)CCN(c2ncc(-c3ccc4nc5n(c4c3)[C@@H](c3ccccc3)COC5)cn2)C1 (some centres unmarked) [G.31] | 1000 to 10000 nM | – |
| c1ccc([C@H]2COCc3nc4ccc(-c5cnc(N6CCCOCC6)nc5)cc4n32)cc1 [G.32] | < 1000 nM | – |

| Compound | IC50 [1] | IC50 [2] |
| --- | --- | --- |
| CS(=O)(=O)C1(CO)CCN(c2ncc(-c3ccc4nc5n(c4c3)[C@@H](c3ccccc3)COC5)cn2)CC1 [G.33] | 1000 to 10000 nM | – |
| OC1CC2(CCN(c3ncc(-c4ccc5nc6n(c5c4)[C@@H](c4ccccc4)COC6)cn3)C2)C1 (some centres unmarked) [G.34] | < 1000 nM | – |
| OCC1CN(c2ncc(-c3ccc4nc5n(c4c3)[C@@H](c3ccccc3)COC5)cn2)CCO1 (some centres unmarked) [G.35] | < 1000 nM | – |
| O=C(O)C1CN(c2ncc(-c3ccc4nc5n(c4c3)C(c3ccccc3)CCC5)cn2)C1 (centres unmarked) [H.1] | 10000 to 100000 nM | – |
| O=C(O)C1CCN(c2ncc(-c3ccc4nc5n(c4c3)C(c3ccccc3)CCC5)cn2)CC1 (centres unmarked) [H.2] | 1000 to 10000 nM | – |
| O=C1CN(c2ncc(-c3ccc4nc5n(c4c3)C(c3ccccc3)CCC5)cn2)CCN1 (centres unmarked) [H.3] | 1000 to 10000 nM | – |
| OC1(c2cccc(Cl)c2)CCCc2nc3ccc(-c4cnc(N5CCOCC5)nc4)cn3c21 (centres unmarked) [I.1, 9-(3-Chlorophenyl)-2-(2-morpholinopyrimidin-5-yl)-6,7,8,9-tetrahydrobenzo[4,5]imidazo[1,2-a]pyridin-9-ol] | 1000 to 10000 nM | – |
| OC1(c2ccccc2)CCCc2nc3ccc(-c4cnc(N5CCOCC5)nc4)cn3c21 (centres unmarked) [I.2] | 1000 to 10000 nM | – |
| Cc1cccc(C2(O)CCCc3nc4ccc(-c5cnc(N6CCOCC6)nc5)cn4c32)c1 (centres unmarked) [I.3] | 1000 to 10000 nM | – |
| OC1(c2cccc(F)c2)CCCc2nc3ccc(-c4cnc(N5CCOCC5)nc4)cn3c21 (centres unmarked) [I.4] | 1000 to 10000 nM | – |
| Cc1c(F)cccc1C1(O)CCCc2nc3ccc(-c4cnc(N5CCOCC5)nc4)cn3c21 (centres unmarked) [I.5] | 1000 to 10000 nM | – |
| OC1(c2ccc(F)cc2)CCCc2nc3ccc(-c4cnc(N5CCOCC5)nc4)cn3c21 (centres unmarked) [I.6] | 1000 to 10000 nM | – |
| OC1(c2cc(F)cc(Cl)c2)CCCc2nc3ccc(-c4cnc(N5CCOCC5)nc4)cn3c21 (centres unmarked) [I.7] | 1000 to 10000 nM | – |
| Cc1ccc(C2(O)CCCc3nc4ccc(-c5cnc(N6CCOCC6)nc5)cn4c32)cc1 (centres unmarked) [I.8] | 1000 to 10000 nM | – |
| OC1(c2cccc(F)c2)CCCCc2nc3ccc(-c4cnc(N5CCOCC5)nc4)cn3c21 (centres unmarked) [J.1] | < 1000 nM | – |
| OC1(c2cccc(Cl)c2)CCCCc2nc3ccc(-c4cnc(N5CCOCC5)nc4)cn3c21 (centres unmarked) [J.2] | 1000 to 10000 nM | – |
| Cc1cccc(C2(O)CCCCc3nc4ccc(-c5cnc(N6CCOCC6)nc5)cn4c32)c1 (centres unmarked) [J.3] | 1000 to 10000 nM | – |
| OC1(c2ccc(F)cc2)CCCCc2nc3ccc(-c4cnc(N5CCOCC5)nc4)cn3c21 (centres unmarked) [J.4] | 1000 to 10000 nM | – |
| OC1(c2cc(F)cc(Cl)c2)CCCCc2nc3ccc(-c4cnc(N5CCOCC5)nc4)cn3c21 (centres unmarked) [J.5] | 1000 to 10000 nM | – |
| COc1ccc(C2(O)CCCCc3nc4ccc(-c5cnc(N6CCOCC6)nc5)cn4c32)cc1 (centres unmarked) [J.6] | 1000 to 10000 nM | – |
| Cc1ccc(C2(O)CCCCc3nc4ccc(-c5cnc(N6CCOCC6)nc5)cn4c32)cc1 (centres unmarked) [J.7] | 1000 to 10000 nM | – |
| OC1(c2ccc(Cl)cc2)CCCCc2nc3ccc(-c4cnc(N5CCOCC5)nc4)cn3c21 (centres unmarked) [J.8] | 1000 to 10000 nM | – |
| COc1cc(OC)cc(C2(O)CCCCc3nc4ccc(-c5cnc(N6CCOCC6)nc5)cn4c32)c1 (centres unmarked) [J.9] | 10000 to 100000 nM | – |
| COc1cccc(C2(O)CCCCc3nc4ccc(-c5cnc(N6CCOCC6)nc5)cn4c32)c1 (centres unmarked) [J.10] | 10000 to 100000 nM | – |
| Clc1cccc(C2CCCc3nc4ccc(-c5cnc(N6CCOCC6)nc5)cn4c32)c1 (centres unmarked) [K.1] | < 1000 nM | – |
| CC(C)(O)c1ncc(-c2ccc3nc4n(c3n2)C(c2ccccc2)CC4)cn1 (centres unmarked) [L.1] | < 1000 nM | – |

| Compound | IC50 [1] | IC50 [2] |
| --- | --- | --- |
| O=C1CN(c2ncc(-c3ccc4nc5n(c4n3)C(c3ccccc3)CC5)cn2)CCN1 (centres unmarked) [L.2] | < 1000 nM | – |
| OC1CCN(c2ncc(-c3ccc4nc5n(c4n3)C(c3ccccc3)CC5)cn2)CC1 (centres unmarked) [L.3, 1-(5-(8-phenyl-7,8-dihydro-6H-pyrrolo[2′,1′:2,3]imidazo[4,5-b]pyridin-2-yl)pyrimidin-2-yl)piperidin-4-ol] | < 1000 nM | – |
| O=C1NCC2CN(c3ncc(-c4ccc5nc6n(c5n4)C(c4ccccc4)CC6)cn3)CCN12 (centres unmarked) [L.4] | < 1000 nM | – |
| Fc1cccc(C2CCc3nc4ccc(-c5cnc(N6CCOCC6)nc5)nc4n32)c1 (centres unmarked) [M.1] | < 1000 nM | – |
| CC(C)(O)c1ncc(-c2ccc3nc4n(c3n2)C(c2cccc(F)c2)CC4)cn1 (centres unmarked) [M.2] | < 1000 nM | – |
| O=C1CN(c2ncc(-c3ccc4nc5n(c4n3)C(c3cccc(F)c3)CC5)cn2)CCN1 (centres unmarked) [M.3] | < 1000 nM | – |
| OC1CCN(c2ncc(-c3ccc4nc5n(c4n3)C(c3cccc(F)c3)CC5)cn2)CC1 (centres unmarked) [M.4, 1-(5-(8-(3-fluorophenyl)-7,8-dihydro-6H-pyrrolo[2′,1′:2,3]imidazo[4,5-b]pyridin-2-yl)pyrimidin-2-yl)piperidin-4-ol] | < 1000 nM | – |
| O=C1NCC2CN(c3ncc(-c4ccc5nc6n(c5n4)C(c4cccc(F)c4)CC6)cn3)CCN12 (centres unmarked) [M.5] | < 1000 nM | – |
| Cc1ccc(C)c(C2CCc3nc4ccc(-c5cnc(N6CCOCC6)nc5)nc4n32)c1 (centres unmarked) [N.1] | < 1000 nM | – |
| Cc1ccc(C)c(C2CCc3nc4ccc(-c5cnc(N6CCNC(=O)C6)nc5)nc4n32)c1 (centres unmarked) [N.2] | < 1000 nM | – |
| Cc1ccc(C)c(C2CCc3nc4ccc(-c5cnc(N6CCC(O)CC6)nc5)nc4n32)c1 (centres unmarked) [N.3] | < 1000 nM | – |
| Cc1ccc(C)c(C2CCc3nc4ccc(-c5cnc(N6CCN7C(=O)NCC7C6)nc5)nc4n32)c1 (centres unmarked) [N.4] | < 1000 nM | – |
| c1ccc(C2CCCc3nc4ccc(-c5cnc(N6CCOCC6)nc5)nc4n32)cc1 (centres unmarked) [O.1] | < 1000 nM | – |
| CC(C)(O)c1ncc(-c2ccc3nc4n(c3n2)C(c2ccccc2)CCC4)cn1 (centres unmarked) [O.2] | < 1000 nM | – |
| O=C1CN(c2ncc(-c3ccc4nc5n(c4n3)C(c3ccccc3)CCC5)cn2)CCN1 (centres unmarked) [O.3] | < 1000 nM | – |
| OC1CCN(c2ncc(-c3ccc4nc5n(c4n3)C(c3ccccc3)CCC5)cn2)CC1 (centres unmarked) [O.4] | < 1000 nM | – |
| c1ccc(C2CCc3nc4cnc(-c5cnc(N6CCOCC6)nc5)cc4n32)cc1 (centres unmarked) [P.1] | 1000 to 10000 nM | – |
| CC(C)(O)c1ncc(-c2cc3c(cn2)nc2n3C(c3ccccc3)CC2)cn1 (centres unmarked) [P.2] | 1000 to 10000 nM | – |
| O=C1CN(c2ncc(-c3cc4c(cn3)nc3n4C(c4ccccc4)CC3)cn2)CCN1 (centres unmarked) [P.3] | 10000 to 100000 nM | – |
| O=C1CN(c2ncc(-c3cnc4nc5n(c4c3)C(c3ccccc3)CCC5)cn2)CCN1 (centres unmarked) [Q.1] | 10000 to 100000 nM | – |
| COc1ccccc1C1CCCc2nc3ccc(-c4ccc(OCC(=O)O)nc4)cn3c21 (centres unmarked) [R.1] | < 1000 nM | – |
| COc1ccccc1C1CCCCc2nc3ccc(-c4cnc(N5CCOCC5)nc4)cn3c21 (centres unmarked) [S.1] | – | < 1000 nM |
| CCOC(=O)CNc1ncc(-c2ccc3nc4c(n3c2)C(c2ccccc2OC)CCCC4)cn1 (centres unmarked) [S.2] | – | 1000 to 10000 nM |
| COc1ccccc1C1CCCCc2nc3ccc(-c4cnc(NCC(=O)O)nc4)cn3c21 (centres unmarked) [S.3] | – | 1000 to 10000 nM |
| COc1ccccc1C1CCCCc2nc3ccc(-c4cnc(C(C)(C)O)nc4)cn3c21 (centres unmarked) [S.4] | – | < 1000 nM |
